Among the data in patent publication US20180353462A1, “[…] AGENTS […] FLAVONOID DERIVATIVES TARGETING KINASES, SIRTUINS AND ONCOGENIC AGENTS FOR THE TREATMENT OF CANCERS” (priority 2015, published 2018) are IC50 values, retold here.

One test deals with T1, FMS/CSF1R (Homo sapiens, UniProt P07333).
T1 construct: made in house
Briefly: Kinase competition binding assay, FMS/CSF1R. The settings on record: Table 1 kinase panel. Here is the method: (§1) Cannabis flavonoids and their analogs were subjected to kinase inhibition assay. The compounds were first screened at a single concentration of 10 μM in the primary assay. […]. To determine the kd or IC50 values, competition binding assays were established, authenticated and executed as described previously. Fabian et al., “A Small Molecule-Kinase Interaction Map For Clinical Kinase Inhibitors.”, Nat Biotechnol, 23(3):329-36, Epub (2005). See also, Karaman et al., “A Quantitative Analysis Of Kinase Inhibitor Selectivity”, Nat. Biotechnol. […] For most assays, kinases were fused to T7 phage strains (Fabian, supra) and for the other assays, kinases were produced in HEK-293 cells after which they were tagged with DNA for quantitative PCR detection. In general, full-length constructs were used for small, single domain kinases, and catalytic domain constructs for large multi-domain kinases. The binding assays utilized streptavidin-coated magnetic beads treated with biotinylated small molecule ligands for 30 minutes at room temperature which generated affinity resins for the kinase assays. The liganded beads were blocked with excess biotin and washed with blocking buffer (SeaBlock (Pierce), 1% BSA, 0.05% Tween 20, 1 mM DTT) to remove unbound ligand and to reduce non-specific phage binding. […] Test compounds were prepared as 40× stocks in 100% DMSO and diluted directly into the assay (Final DMSO concentration=2.5%). All reactions were performed in polypropylene 384-well plates in a final volume of 0.04 ml. […] The beads were then re-suspended in elution buffer (1×PBS, 0.05% Tween 20, 0.5 μM non-biotinylated affinity ligand) and incubated at room temperature with shaking for 30 minutes. The kinase concentration in the eluates was measured by quantitative PCR. An illustration of the kinase interaction process is presented below. Kd/IC50 values were determined using a standard dose response curve using the hill equation. Curves were fitted using a non-linear least square fit with the Levenberg-Marquardt algorithm.
(§2) The compound(s) were screened at 10 μM and results for primary screen binding interactions are reported as ‘% Ctrl’, where lower numbers indicate stronger hits in the matrix.

A further test addresses EFGR(L858R, T7790M). The experiment in a line: Kinase competition binding assay, EFGR(L858R, T7790M). The settings on record: Table 1 kinase panel. As for the experimental part:
as §1, §2

A further test deals with T2, PIM-3 (Homo sapiens, UniProt Q86V86).
T2 construct: full-length constructs were used for small, single domain kinases; T7 phage fusion (most assays) or DNA tag for qPCR (HEK-293-made kinases); made in house
The experiment in a line: Kinase competition binding assay, PIM-3. The settings on record: Table 1 kinase panel. As for the experimental part: as §1, §2

The target in the next test is T3, PASK (Homo sapiens, UniProt Q96RG2).
T3 construct: made in house
Briefly: Kinase competition binding assay, PASK. The settings on record: Table 1 kinase panel. As for the experimental part: as §1, §2

Another test deals with T4, JAK3 (Homo sapiens, UniProt P52333).
T4 construct: made in house
T4 sequence (P52333 1-1124): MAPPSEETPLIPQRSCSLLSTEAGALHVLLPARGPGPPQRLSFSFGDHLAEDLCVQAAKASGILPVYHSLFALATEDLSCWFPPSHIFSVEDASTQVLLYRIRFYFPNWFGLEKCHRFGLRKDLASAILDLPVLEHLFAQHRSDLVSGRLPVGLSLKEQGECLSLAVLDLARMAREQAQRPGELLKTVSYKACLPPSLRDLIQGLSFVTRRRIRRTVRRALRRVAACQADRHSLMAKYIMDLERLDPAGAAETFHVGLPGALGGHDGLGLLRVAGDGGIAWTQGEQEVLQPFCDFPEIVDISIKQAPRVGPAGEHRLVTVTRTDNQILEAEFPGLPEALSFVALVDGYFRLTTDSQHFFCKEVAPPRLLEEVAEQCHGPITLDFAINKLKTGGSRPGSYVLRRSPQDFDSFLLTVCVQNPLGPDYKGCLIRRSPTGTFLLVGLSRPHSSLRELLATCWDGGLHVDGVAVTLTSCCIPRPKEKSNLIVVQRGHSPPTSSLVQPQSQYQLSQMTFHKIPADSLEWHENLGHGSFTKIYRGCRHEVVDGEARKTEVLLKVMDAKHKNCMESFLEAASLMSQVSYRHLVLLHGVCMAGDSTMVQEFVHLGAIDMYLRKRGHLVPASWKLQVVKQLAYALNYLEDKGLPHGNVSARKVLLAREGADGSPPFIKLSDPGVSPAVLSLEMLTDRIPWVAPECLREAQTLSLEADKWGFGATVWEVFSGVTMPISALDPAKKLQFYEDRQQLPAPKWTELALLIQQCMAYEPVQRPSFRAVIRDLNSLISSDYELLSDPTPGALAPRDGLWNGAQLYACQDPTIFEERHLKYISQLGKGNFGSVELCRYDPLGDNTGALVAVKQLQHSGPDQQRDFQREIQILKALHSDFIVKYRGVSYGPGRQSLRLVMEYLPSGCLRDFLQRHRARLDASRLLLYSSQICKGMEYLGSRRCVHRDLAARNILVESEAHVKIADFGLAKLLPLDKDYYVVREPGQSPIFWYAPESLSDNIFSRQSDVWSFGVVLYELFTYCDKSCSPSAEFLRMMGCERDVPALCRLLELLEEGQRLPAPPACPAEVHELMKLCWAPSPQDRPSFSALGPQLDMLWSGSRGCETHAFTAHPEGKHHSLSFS
The experiment in a line: Kinase competition binding assay, JAK3. The settings on record: Table 1 kinase panel. Here is the method: as §1, §2

The next test concerns the target T5, PIP5K1A (Homo sapiens, UniProt Q99755).
T5 construct: T7 phage fusion (most assays) or DNA tag for qPCR (HEK-293-made kinases); made in house
The experiment in a line: Kinase competition binding assay, PIP5K1A. The settings on record: Table 1 kinase panel. As for the experimental part:
as §1, §2

Another test deals with T6, SIRT-5 (Homo sapiens, UniProt Q9NXA8).
T6 sequence (Q9NXA8 37-310): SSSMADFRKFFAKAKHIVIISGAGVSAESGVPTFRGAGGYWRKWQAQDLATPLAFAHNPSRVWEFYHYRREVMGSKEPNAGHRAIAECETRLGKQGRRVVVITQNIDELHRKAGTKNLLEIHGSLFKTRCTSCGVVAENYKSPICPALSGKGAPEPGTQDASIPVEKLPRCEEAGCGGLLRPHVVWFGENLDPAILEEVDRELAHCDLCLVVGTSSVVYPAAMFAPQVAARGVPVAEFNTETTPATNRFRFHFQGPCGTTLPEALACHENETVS
The experiment in a line: Inhibition of sirtuins, SIRT-5. Format: biochemical. The settings on record: Table 3 SIRT. The source says: Inhibition of Sirtuins, Matrix Metalloproteinase, Bromodomains was Also Confirmed Using Standard Protocols and the Results are Present in Table 2.

A further test deals with T7, PIM-1 (Homo sapiens, UniProt P11309).
T7 construct: full-length constructs were used for small, single domain kinases; T7 phage fusion (most assays) or DNA tag for qPCR (HEK-293-made kinases); made in house
Briefly: Kinase competition binding assay, PIM-1. The settings on record: Table 1 kinase panel. As for the experimental part:
as §1, §2

For the compound `COc1cc(-c2cc(=O)c3c(O)cc(O)c(C/C=C(\C)CCC=C(C)C)c3o2)ccc1O` [FBL-03C], the half-maximal inhibitory concentration (IC50) on FMS/CSF1R was 1200 nM; on EFGR(L858R, T7790M), 680 nM; on PIM-3, more than 1000 nM; at PASK, more than 20000 nM; on JAK3, 780 nM; at PIP5K1A, 360 nM. Also, the half-inhibitory concentration (IC50) against SIRT-5 is 132 µM; at PIM-1, more than 1000 nM.
With `COc1ccc(-c2cc(=O)c3c(O)c(C/C=C(\C)CCC=C(C)C)c(O)cc3o2)cc1OC` [FBL-03D], the half-inhibitory concentration (IC50) on FMS/CSF1R was more than 30000 nM; on EFGR(L858R, T7790M), more than 30000 nM; on PIM-3, more than 30000 nM; on PASK, more than 30000 nM; on JAK3 it was more than 30000 nM; on PIP5K1A, more than 30000 nM. Moreover, at PIM-1, the IC50 is more than 30000 nM.
For `COc1cc(-c2cc(=O)c3c(O)cc(O)c(CC=C(C)C)c3o2)ccc1O` [FBL-03G], the half-maximal inhibitory concentration (IC50) on FMS/CSF1R is 4 nM; at EFGR(L858R, T7790M) it was more than 1000 nM; on PIM-3 it was 35 nM; at PASK, 116 nM; at JAK3, more than 20000 nM; on PIP5K1A it was more than 20000 nM. Moreover, the values for the concentration for half-maximal inhibition (IC50) against SIRT-5 and at PIM-1 were 974 µM and 78 nM, respectively.
In the case of `COc1cc(-c2cc(=O)c3c(O)c(C/C=C(\C)CCC=C(C)C)c(O)cc3o2)ccc1O` [FBL-03A], the half-maximal inhibitory concentration (IC50) is 1500 nM at FMS/CSF1R; more than 20000 nM on EFGR(L858R, T7790M); more than 20000 nM on PIM-3; more than 20000 nM on PASK; more than 20000 nM on JAK3; more than 20000 nM on PIP5K1A. Further, the IC50 at SIRT-5 is 523 µM; at PIM-1, more than 20000 nM.
On to `COc1cc(-c2cc(=O)c3c(O)c(CC=C(C)C)c(O)cc3o2)ccc1O` [FBL-03B], for which the half-maximal inhibitory concentration (IC50) at FMS/CSF1R is 199 nM; at EFGR(L858R, T7790M), more than 1000 nM; on PIM-3, 173 nM; on PASK, 2060 nM; on JAK3, more than 1000 nM; on PIP5K1A, more than 10000 nM. The same compound registered a concentration for half-maximal inhibition (IC50) on SIRT-5 of 104 µM.
